Measurements published in patent US10968210B2, “Diamino-alkylamino-linked arylsulfonamide compounds with selective activity in voltage-gated sodium channels” (Merck Sharp & Dohme Corp., priority 2016, dated 2021).

What follows are molecules tested against T1, human Nav 1.5 channels stably expressed in HEK 293 cells (Homo sapiens, UniProt Q14524) (assay: IonWorks Quattro automated patch-clamp, inactivated state block of Nav 1.5 (reported as ratio to Nav 1.7 potency)). Conditions: selectivity for Nav 1.7 over Nav 1.5, both by IonWorks.
T1 construct: expressed in transfected cells; host or cells: HEK 293
Type: cell-based
Experimental: (§1) IonWorks® Experimental Procedure
(§2) Compounds were tested on human Nav 1.7 and Nav 1.5 channels stably expressed in HEK 293 cells. Sodium current measurements on IonWorks Quattro: An automated patch-clamp assay on the IonWorks Quattro platform (Molecular Devices) was used to measure state-dependent inhibition of human Nav 1.7 and Nav 1.5 channels. Cells were sealed on a planar substrate using the Population Patch Plate (PPC) technology. Electrical access was obtained using both nystatin and amphotericin. A double-pulse protocol was used for the determination of IC50 values for inactivated state block. Nav 1.7 and Nav 1.5 expressing cells were voltage clamped at −100 mV and −110 mV, respectively. A depolarizing prepulse to −10 mV (Nav 1.7) or −30 mV (Nav 1.5) for 1000 ms followed by a 10 ms repolarization to ˜100 mV (Nav1.7) or −110 mV (Nav 1.5) was given to generate fractional channel inactivation of ˜50%, followed by a 10 ms test pulse to −10 mV (Nav 1.7) or −30 mV (Nav 1.5) to measure peak current in control conditions and after compound addition. The following recording solutions were used (mM). External: 150 NaCl, 2 CaCl2, 5 KCl, 1 Mg Cl2, 10 HEPES, 12 Dextrose; internal: 120 CsF, 30 CsCl, 10 EGTA, 5 HEPES, 5 NaF, 2 MgCl2.
(§3) For all electrophysiology experiments, offline analysis was used to determine percent inhibition as a function of drug concentration. IC50 values were determined by fitting to the Hill equation.
(§4) The various compounds in Examples 1 through 4 and Tables 1 through 3 exemplified above were assayed for activity and selectivity using the foregoing IonWorks® technique. The results are reported in the following paragraph in a format expressing the identification of the compound with reference Example and compound (e.g. Ex 1-9 is Example 1, compound 9) followed by the observed potency in nM and the ratio of Nav1.7 potency: Nav1.5 potency as described here. Thus, Ex1-9: 1.7=65/ratio=641 identifies compound Example 1, compound 9 as having 65 nM potency for the Nav 1.7 sodium ion channel (as measured by IonWorks®) and a ratio of 641 Nav 1.7: Nav 1.5 potency, determined by IonWorks® measurement.

T1 sequence (Q14524 whole entry): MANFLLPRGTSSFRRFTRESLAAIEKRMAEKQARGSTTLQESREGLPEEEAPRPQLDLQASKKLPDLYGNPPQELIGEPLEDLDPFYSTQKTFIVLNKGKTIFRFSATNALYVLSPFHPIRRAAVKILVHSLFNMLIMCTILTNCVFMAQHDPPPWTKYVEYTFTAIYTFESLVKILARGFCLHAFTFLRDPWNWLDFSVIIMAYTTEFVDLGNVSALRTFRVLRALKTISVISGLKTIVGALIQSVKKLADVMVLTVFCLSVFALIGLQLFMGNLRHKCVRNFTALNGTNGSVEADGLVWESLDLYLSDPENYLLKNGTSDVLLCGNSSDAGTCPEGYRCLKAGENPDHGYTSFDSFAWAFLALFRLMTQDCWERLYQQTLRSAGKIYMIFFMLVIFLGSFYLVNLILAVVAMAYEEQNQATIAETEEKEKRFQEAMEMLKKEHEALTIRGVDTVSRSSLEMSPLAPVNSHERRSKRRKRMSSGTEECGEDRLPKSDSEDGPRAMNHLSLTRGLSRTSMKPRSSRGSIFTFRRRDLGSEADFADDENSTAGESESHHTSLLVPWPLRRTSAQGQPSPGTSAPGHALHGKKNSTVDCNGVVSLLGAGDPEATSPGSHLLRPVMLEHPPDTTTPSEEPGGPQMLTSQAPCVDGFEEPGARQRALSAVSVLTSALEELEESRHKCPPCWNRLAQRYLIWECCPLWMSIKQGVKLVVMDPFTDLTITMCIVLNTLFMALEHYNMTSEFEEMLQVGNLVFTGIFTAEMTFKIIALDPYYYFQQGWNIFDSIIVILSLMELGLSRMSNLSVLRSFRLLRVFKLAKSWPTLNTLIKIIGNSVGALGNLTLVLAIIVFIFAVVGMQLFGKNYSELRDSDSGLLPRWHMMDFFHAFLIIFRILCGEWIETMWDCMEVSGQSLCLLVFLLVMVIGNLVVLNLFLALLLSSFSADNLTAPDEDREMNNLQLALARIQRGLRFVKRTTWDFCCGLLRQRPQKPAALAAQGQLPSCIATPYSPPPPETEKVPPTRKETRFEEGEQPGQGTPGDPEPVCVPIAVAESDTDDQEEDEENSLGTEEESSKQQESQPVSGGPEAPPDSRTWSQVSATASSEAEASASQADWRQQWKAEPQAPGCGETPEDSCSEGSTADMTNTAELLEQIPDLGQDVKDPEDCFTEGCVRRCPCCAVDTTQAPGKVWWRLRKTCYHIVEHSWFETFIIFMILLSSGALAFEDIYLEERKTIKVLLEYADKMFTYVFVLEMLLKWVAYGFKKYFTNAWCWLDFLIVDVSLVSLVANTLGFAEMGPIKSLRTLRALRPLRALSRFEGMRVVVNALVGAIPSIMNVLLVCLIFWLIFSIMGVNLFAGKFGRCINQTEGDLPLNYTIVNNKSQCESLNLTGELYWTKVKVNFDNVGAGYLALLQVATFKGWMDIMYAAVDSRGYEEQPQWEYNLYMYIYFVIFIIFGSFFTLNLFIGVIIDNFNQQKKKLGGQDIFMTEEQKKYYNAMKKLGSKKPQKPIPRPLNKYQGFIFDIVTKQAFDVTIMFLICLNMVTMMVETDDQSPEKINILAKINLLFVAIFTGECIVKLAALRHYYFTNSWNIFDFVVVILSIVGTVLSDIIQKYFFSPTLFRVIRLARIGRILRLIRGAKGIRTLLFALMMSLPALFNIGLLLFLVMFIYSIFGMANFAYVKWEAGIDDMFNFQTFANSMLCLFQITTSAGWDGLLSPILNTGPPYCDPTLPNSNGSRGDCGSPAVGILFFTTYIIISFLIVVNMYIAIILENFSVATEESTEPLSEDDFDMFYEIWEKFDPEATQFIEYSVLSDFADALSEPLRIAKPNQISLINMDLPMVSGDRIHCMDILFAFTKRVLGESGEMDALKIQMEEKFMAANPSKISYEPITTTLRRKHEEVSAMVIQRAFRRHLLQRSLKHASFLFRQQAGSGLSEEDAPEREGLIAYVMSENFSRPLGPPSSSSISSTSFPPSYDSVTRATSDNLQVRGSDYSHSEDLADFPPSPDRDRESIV

Row | Structure (SMILES) | ratio of Nav 1.7 : Nav 1.5 potency (IonWorks)
1 | N[C@@H]1CCN(CCCCNc2cc(F)c(S(=O)(=O)Nc3nccs3)cc2Cl)C1 [Ex 1-36, 4-({4-[(3R)-3-aminopyrrolidin-1-yl]butyl}amino)-5-chloro-2-fluoro-N-1,3-thiazol-2-ylbenzenesulfonamide] | > 1830
2 | O=S(=O)(Nc1nccs1)c1cc(Cl)c(NCCCCNCC2CCC(c3ccccc3)CN2)cc1F (stereo not drawn) [Ex 8-14, 5-chloro-2-fluoro-4-[(4-{[(5-phenyl-piperidin-2-yl)-methyl]amino}butyl)amino]-N-1,3-thiazol-2-yl-benzenesulfonamide] | 2290

These molecules were tested against T2, human Nav 1.7 channels stably expressed in HEK 293 cells (Homo sapiens, UniProt Q15858) (assay: IonWorks Quattro automated patch-clamp, inactivated state block of Nav 1.7). Conditions: double-pulse protocol, HEK 293 cells held at -100 mV, read-out: potency for the Nav 1.7 sodium ion channel (IC50, IonWorks).
T2 construct: expressed in transfected cells; host or cells: HEK 293
Type: cell-based
Experimental: as §1, §2, §3, §4

T2 sequence (Q15858 whole entry): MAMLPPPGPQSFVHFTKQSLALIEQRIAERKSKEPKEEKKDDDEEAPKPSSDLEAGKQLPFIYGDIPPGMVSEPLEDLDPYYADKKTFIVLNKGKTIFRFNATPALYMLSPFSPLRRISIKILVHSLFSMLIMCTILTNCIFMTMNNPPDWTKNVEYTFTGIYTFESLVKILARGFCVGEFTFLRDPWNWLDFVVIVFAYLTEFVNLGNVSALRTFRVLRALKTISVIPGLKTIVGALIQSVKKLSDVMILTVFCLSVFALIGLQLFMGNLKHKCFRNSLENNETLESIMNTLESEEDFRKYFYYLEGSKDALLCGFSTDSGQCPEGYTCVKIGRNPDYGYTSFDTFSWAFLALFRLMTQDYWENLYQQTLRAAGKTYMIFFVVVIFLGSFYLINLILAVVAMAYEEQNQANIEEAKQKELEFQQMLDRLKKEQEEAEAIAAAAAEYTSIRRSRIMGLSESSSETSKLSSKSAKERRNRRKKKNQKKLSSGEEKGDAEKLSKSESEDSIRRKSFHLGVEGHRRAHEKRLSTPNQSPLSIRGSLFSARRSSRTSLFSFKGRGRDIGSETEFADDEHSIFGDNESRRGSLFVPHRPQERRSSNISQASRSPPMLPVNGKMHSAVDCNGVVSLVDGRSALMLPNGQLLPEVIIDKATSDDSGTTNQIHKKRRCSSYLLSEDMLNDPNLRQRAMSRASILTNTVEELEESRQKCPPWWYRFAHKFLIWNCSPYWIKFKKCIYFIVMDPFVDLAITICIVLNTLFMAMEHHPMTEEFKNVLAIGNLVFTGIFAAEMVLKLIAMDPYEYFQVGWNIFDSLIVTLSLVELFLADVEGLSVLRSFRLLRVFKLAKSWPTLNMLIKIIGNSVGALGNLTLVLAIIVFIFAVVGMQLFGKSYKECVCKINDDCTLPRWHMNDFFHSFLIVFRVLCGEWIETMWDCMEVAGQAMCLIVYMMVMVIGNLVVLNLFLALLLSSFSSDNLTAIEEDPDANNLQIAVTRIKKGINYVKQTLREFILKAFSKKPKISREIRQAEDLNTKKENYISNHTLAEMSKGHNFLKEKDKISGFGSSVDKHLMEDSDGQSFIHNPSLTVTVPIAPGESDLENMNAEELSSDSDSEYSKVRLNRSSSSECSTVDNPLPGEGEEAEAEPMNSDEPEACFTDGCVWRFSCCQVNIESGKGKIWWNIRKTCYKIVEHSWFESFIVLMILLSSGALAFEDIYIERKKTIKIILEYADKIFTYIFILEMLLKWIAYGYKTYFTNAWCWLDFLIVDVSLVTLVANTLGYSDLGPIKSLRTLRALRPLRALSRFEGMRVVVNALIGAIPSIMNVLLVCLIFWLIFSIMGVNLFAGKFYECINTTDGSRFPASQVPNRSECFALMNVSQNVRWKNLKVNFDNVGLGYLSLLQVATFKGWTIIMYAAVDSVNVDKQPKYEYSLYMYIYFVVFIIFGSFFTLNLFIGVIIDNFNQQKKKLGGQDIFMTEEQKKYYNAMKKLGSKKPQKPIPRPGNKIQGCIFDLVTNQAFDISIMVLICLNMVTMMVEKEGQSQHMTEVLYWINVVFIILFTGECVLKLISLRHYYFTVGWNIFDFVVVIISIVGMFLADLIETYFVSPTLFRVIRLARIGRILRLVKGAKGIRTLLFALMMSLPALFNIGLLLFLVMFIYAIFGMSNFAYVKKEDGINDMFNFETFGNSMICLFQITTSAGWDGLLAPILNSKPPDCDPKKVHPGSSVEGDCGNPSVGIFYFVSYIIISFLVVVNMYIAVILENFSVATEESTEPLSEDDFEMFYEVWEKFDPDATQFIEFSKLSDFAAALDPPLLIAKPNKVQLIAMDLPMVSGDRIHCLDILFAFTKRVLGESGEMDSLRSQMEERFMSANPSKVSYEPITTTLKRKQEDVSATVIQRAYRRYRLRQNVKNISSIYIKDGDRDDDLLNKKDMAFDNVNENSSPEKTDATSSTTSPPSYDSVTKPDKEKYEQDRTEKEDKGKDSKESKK

Row | Structure (SMILES) | IC50 [nM]
3 | N[C@@H]1CCN(CCCCNc2cc(F)c(S(=O)(=O)Nc3nccs3)cc2Cl)C1 [Ex 1-36, 4-({4-[(3R)-3-aminopyrrolidin-1-yl]butyl}amino)-5-chloro-2-fluoro-N-1,3-thiazol-2-ylbenzenesulfonamide] | 18
4 | O=S(=O)(Nc1nccs1)c1cc(Cl)c(NCCCCNCC2CCC(c3ccccc3)CN2)cc1F (stereo not drawn) [Ex 8-14, 5-chloro-2-fluoro-4-[(4-{[(5-phenyl-piperidin-2-yl)-methyl]amino}butyl)amino]-N-1,3-thiazol-2-yl-benzenesulfonamide] | 14
5 | O=S(=O)(Nc1nccs1)c1cc(Cl)c(NCCCCN2CCCC23CCNC3)cc1F (stereo not drawn) [Ex 1-12, 5-chloro-4-{[4-(1,7-diazaspiro[4.4]non-1-yl)butyl]amino}-2-fluoro-N-1,3-thiazol-2-ylbenzenesulfonamide] | 66
6 | NCC(NCCCCNc1cc(F)c(S(=O)(=O)Nc2nccs2)cc1Cl)c1ccccc1 (stereo not drawn) [Ex 1-32, 4-({4-[(2-amino-1-phenylethyl)amino]butyl}amino)-5-chloro-2-fluoro-N-1,3-thiazol-2-ylbenzenesulfonamide] | 16
7 | O=S(=O)(Nc1nccs1)c1cc(Cl)c(NCCCCNCC2Cc3ccccc3CN2)cc1F (single isomer, unassigned) [Ex 1-19, (S or R)-5-chloro-2-fluoro-4-({4-[(1,2,3,4-tetrahydroisoquinolin-3-ylmethyl)amino]butyl}amino)-N-1,3-thiazol-2-ylbenzenesulfonamide] | 10
8 | NC1C2CN(CCCCNc3cc(F)c(S(=O)(=O)Nc4nccs4)cc3Cl)CC12 (stereo not drawn) [Ex 1-42, 4-{[4-(6-amino-3-azabicyclo[3.1.0]hex-3-yl)butyl]amino}-5-chloro-2-fluoro-N-1,3-thiazol-2-ylbenzenesulfonamide] | 80
9 | O=S(=O)(Nc1nccs1)c1cc(Cl)c(NCCCCN2CC3CCCNC3C2)cc1F (stereo not drawn) [Ex 1-13, 5-chloro-2-fluoro-4-{[4-(octahydro-6H-pyrrolo[3,4-b]pyridin-6-yl)butyl]amino}-N-1,3-thiazol-2-ylbenzenesulfonamide] | 16
10 | O=S(=O)(Nc1nccs1)c1cc(Cl)c(NCCCCNC[C@@H]2CC[C@H](c3ccccc3)N2)cc1F [Ex 8-3, 5-chloro-2-fluoro-4-{[4-({[(2S,5R)-5-phenylpyrrolidin-2-yl]methyl}-amino)butyl]-amino}-N-1,3-thiazol-2-yl-benzenesulfonamide] | 13

Second part, the molecule after the results:

Row | IC50 [nM] | Structure (SMILES)
11 | 29 | O=S(=O)(Nc1cccc(F)n1)c1cc(Cl)c(NCCCCCNC[C@@H]2CCCN2)cc1F [Ex 9-2, (S)-5-chloro-2-fluoro-N-(6-fluoropyridin-2-yl)-4-((5-((pyrrolidin-2-ylmethyl)amino)pentyl)amino)benzenesulfonamide]
12 | 12 | O=S(=O)(Nc1ncc(F)s1)c1cc(Br)c(NCCCCN2C[C@H]3CCCN[C@H]3C2)cc1F [Ex 16-44, 5-bromo-2-fluoro-N-(5-fluoro-1,3-thiazol-2-yl)-4-({4-[(4aR,7aR)-octahydro-6H-pyrrolo[3,4-b]pyridin-6-yl]butyl}amino)benzene-sulfonamide]
13 | 11 | Cc1cc(S(=O)(=O)Nc2ncc(F)s2)c(F)cc1NCCCCN[C@@H]1CCNC1 [Ex 16-43, 2-fluoro-N-(5-fluoro-1,3-thiazol-2-yl)-5-methyl-4-({4-[(3R)-pyrrolidin-3-ylamino]-butyl}amino)benzene-sulfonamide]
14 | 10 | NCC1CN(CCCCNc2cc(F)c(S(=O)(=O)Nc3ncns3)cc2Br)C1 [Ex 16-37, 4-((4-(3-(aminomethyl)azetidin-1-yl)butyl)amino)-5-bromo-2-fluoro-N-(1,2,4-thiadiazol-5-yl)benzenesulfonamide]
15 | 12 | O=S(=O)(Nc1ncns1)c1cc(Cl)c(NCCCCN2C[C@H]3CCCN[C@H]3C2)cc1F [Ex 16-31, 5-chloro-2-fluoro-4-({4-[(4aR,7aR)-octahydro-6H-pyrrolo[3,4-b]pyridin-6-yl]-butyl}amino)-N-1,2,4-thiadiazol-5-ylbenzene-sulfonamide]
